Assay results: patent US9434994B2, “Methods for prediction of clinical outcome to epidermal growth factor receptor inhibitors by non-small cell lung cancer patients” (The Regents of the University of Colorado, a body corporate, priority 2004, dated 2016)
Read-outs that look alike come from different tables or passages of the source.

Tested on: NSCLC patients
[1] = EGFR FISH+/EGFR mutation+ (17 patients)
[2] = FISH +, IHC +, EGFR Mut +, n 12
[3] = FISH +, IHC +, EGFR Mut −, n 20

Description: In order to make a more substantial statistical analysis and power, the inventors have analyzed the combined data set, which includes altogether 204 patients with NSCLC.
The multivariable analysis is based on an initial univariable analysis including clinical- and biological markers by using backward stepwise regression methods. All univariately significant covariates were included in the stepwise selection.

Compound: COc1cc2ncnc(Nc3ccc(F)c(Cl)c3)c2cc1OCCCN1CCOCC1 [gefitinib]
- HR, survival, multivariable (Current/Former smokers): 2.68
- DC (disease control) (EGFR FISH+): 65%
- MS (95% CI) (EGFR FISH+): 18 (14-21) months
- OR (overall response) (EGFR FISH+): 33%
- TTP, median (95% CI) (EGFR FISH+): 9 (5-10) months
- 1-yr survival (EGFR FISH+ or IHC+): 44% (33-55)
- DCR (EGFR FISH+ or IHC+): 43%
- MS (EGFR FISH+ or IHC+): 11 (7-15) mo
- RSP (EGFR FISH+ or IHC+): 10%
- TTP (EGFR FISH+ or IHC+): 3 (2-5) mo
- Disease Control Rate [1]: 69%
- response rate [1]: 69%
- time to progression [1]: 16 months
- Median Survival (EGFR FISH+/EGFR mutation+, not yet achieved): exceeding 20 months
- DCR (EGFR FISH+/IHC+): 76%
- MS (EGFR FISH+/IHC+): 21 (15-21) mo
- RSP (EGFR FISH+/IHC+): 41%
- TTP (EGFR FISH+/IHC+): 9 (6-16) mo
- DC (disease control) (EGFR FISH-): 30%
- MS (95% CI) (EGFR FISH-): 8 (6-11) months
- OR (overall response) (EGFR FISH-): 6%
- TTP, median (95% CI) (EGFR FISH-): 3 (2-3) months
- Disease Control Rate (EGFR FISH-/EGFR mutation-): 29%
- response rate (EGFR FISH-/EGFR mutation-): 3%
- time to progression (EGFR FISH-/EGFR mutation-): 3 month
- DCR (EGFR FISH-/IHC-): 17%
- MS (EGFR FISH-/IHC-): 6 (4-8) mo
- RSP (EGFR FISH-/IHC-): 2%
- TTP (EGFR FISH-/IHC-): 2 (2-3) mo
- DC (disease control) (EGFR IHC+): 56%
- MS (95% CI) (EGFR IHC+): 14 (11-21) months
- OR (overall response) (EGFR IHC+): 22%
- TTP, median (95% CI) (EGFR IHC+): 5 (3-7) months
- DC (disease control) (EGFR IHC-): 27%
- HR, survival, multivariable (EGFR IHC-): 1.70
- MS (95% CI) (EGFR IHC-): 7 (5-10) months
- OR (overall response) (EGFR IHC-): 5%
- TTP, median (95% CI) (EGFR IHC-): 3 (2-3) months
- DC (disease control) (EGFR Mutation+): 52%
- MS (95% CI) (EGFR Mutation+): 13 (6-21)
- OR (overall response) (EGFR Mutation+): 39%
- TTP, median (95% CI) (EGFR Mutation+): 3 (2-11)
- DC (disease control) (EGFR Mutation-): 37%
- MS (95% CI) (EGFR Mutation-): 11 (7-13)
- OR (overall response) (EGFR Mutation-): 7%
- TTP, median (95% CI) (EGFR Mutation-): 3 (2-4)
- 1-yr survival (EGFR mutation+ or IHC+): 50% (39-61)
- DCR (EGFR mutation+ or IHC+): 47%
- MS (EGFR mutation+ or IHC+): 12 (8-15) mo
- RSP (EGFR mutation+ or IHC+): 12%
- TTP (EGFR mutation+ or IHC+): 3 (2-5) mo
- 1-yr survival (EGFR mutation+/IHC+): 63% (45-81)
- MS (EGFR mutation+/IHC+): 21 (10-21) mo
- RSP (EGFR mutation+/IHC+): 50%
- TTP (EGFR mutation+/IHC+): 10 (2-16) mo
- MS (EGFR mutation-/IHC-): 7 (5-12) mo
- RSP (EGFR mutation-/IHC-): 2%
- TTP (EGFR mutation-/IHC-): 2 (2-3) mo
- 1-yr surv [2]: 100%
- DCR [2]: 78%
- OR (response rate) [2]: 78%
- TTP [2]: 20 (11-20) months
- 1-yr surv [3]: 64% (42-86)
- OR (response rate) [3]: 22%
- OS (median survival) [3]: 15 (6-16) months
- TTP [3]: 5 (3-12) months
- 1-yr surv (FISH +, IHC +, P-AKT +, N 34): 84% (70-97)
- DCR (FISH +, IHC +, P-AKT +, N 34): 80%
- OR (response rate) (FISH +, IHC +, P-AKT +, N 34): 43%
- TTP (FISH +, IHC +, P-AKT +, N 34): 12 (6-19) months
- 1-yr surv (FISH +, IHC +, P-AKT −, N 4): 75% (33-100)
- OR (response rate) (FISH +, IHC +, P-AKT −, N 4): 0%
- OS (median survival) (FISH +, IHC +, P-AKT −, N 4): 18 (5-18) months
- TTP (FISH +, IHC +, P-AKT −, N 4): 9 (2-9) months
- 1-yr surv (FISH +, IHC −, EGFR Mut +, n 5): 60% (17-100)
- DCR (FISH +, IHC −, EGFR Mut +, n 5): 50%
- OR (response rate) (FISH +, IHC −, EGFR Mut +, n 5): 50%
- TTP (FISH +, IHC −, EGFR Mut +, n 5): 3 (2-9) months
- 1-yr surv (FISH +, IHC −, EGFR Mut −, n 8): 38% (7-66)
- DCR (FISH +, IHC −, EGFR Mut −, n 8): 39%
- OR (response rate) (FISH +, IHC −, EGFR Mut −, n 8): 0%
- OS (median survival) (FISH +, IHC −, EGFR Mut −, n 8): 9 (1-9) months
- TTP (FISH +, IHC −, EGFR Mut −, n 8): 2 (1-6) months
- 1-yr surv (FISH +, IHC −, P-AKT +, N 15): 53% (28-79)
- DCR (FISH +, IHC −, P-AKT +, N 15): 46%
- OR (response rate) (FISH +, IHC −, P-AKT +, N 15): 15%
- OS (median survival) (FISH +, IHC −, P-AKT +, N 15): 14 (3-19) months
- TTP (FISH +, IHC −, P-AKT +, N 15): 3 (2-6) months
- 1-yr surv (FISH +, IHC −, P-AKT −, N 2): 0% (0-69)
- DCR (FISH +, IHC −, P-AKT −, N 2): 0%
- OR (response rate) (FISH +, IHC −, P-AKT −, N 2): 0%
- OS (median survival) (FISH +, IHC −, P-AKT −, N 2): 9 (NA) months
- TTP (FISH +, IHC −, P-AKT −, N 2): 2 (NA) months
- 1-yr surv (FISH −, IHC +, EGFR Mut +, n 12): 42% (1470)
